Key:
NMDA receptor [1] = experiment: [3H]MK-801 binding assay, NMDA receptors in guinea pig brain membranes; conditions: for Relative affinity: compared to that of Memantine
Procedure: Hartley guinea pigs were sacrificed, and their brains were quickly removed and weighed. The brains then were homogenized in 50 mM Tris HCl buffer, pH 7.7, using a Polytron homogenizer. The homogenate was centrifuged at 40,000×g for 15 min, rehomogenized, and centrifuged again. The final pellet was resuspended in Tris-HCl, pH 7.7, at a final concentration of 6.67 mg original wet weight of tissue/ml. […] The samples were then filtered through glass fiber filters on a Tomtec cell harvester. The filters were washed 3 times with 3 ml of cold buffer. Filters were dried overnight and counted next day on a Wallac Betaplate Reader.
The binding experiments were conducted as follows. […] For each compound, graphs were prepared containing individual competition curves obtained for that compound. IC50 values and Hill coefficients were calculated using the program Prism. Ki values were calculated using the Chang Prusoff transformation: Ki═IC50/(1+L/Kd)
where L is radioligand concentration and Kd is the binding affinity of the radioligand, as determined previously by saturation analysis. […] In each experiment, one standard compound was simultaneously run on each 96 well plate.

[2] = Dissolving compounds for 10 mM stock solutions; type: physicochemical; conditions: molecusol, acetic acid, propylene glycol, then hot water
Procedure: Following assay establishment, the test compounds were tested for binding affinities. The concentrations selected for the experiments were chosen according to what was found for memantine in our assay. The first task was to dissolve the compounds and make up the 10 mM stock solution for further experiments. Those compounds that were made into salt format were easy to dissolve in deionized water, but the other compounds were difficult to bring into solution. Several “assay friendly” solvents have been tried, such as molecusol, acetic acid and propylene glycol followed by putting the vial into hot water.

NMDA receptor [3] = experiment: Whole-cell voltage-clamp recording of NMDA evoked currents in hypocretin neurons of hypothalamic slices; type: cell-based, mouse; conditions: washout of the compound

Compound: NC12CC3CC4C5CC(CC41)CC2C5C3 [MDT-2, 1-aminodiamantane]
- Relative affinity (NMDA receptor [1]): 0.094

Compound: NC12CC3C4CC5CC3C(C1)C(C5)C4C2 [MDT-3, 4-aminodiamantane]
- Relative affinity (NMDA receptor [1]): 0.017

Compound: NC12CC3CC4C1CC1CC2C(C3)C4(N)C1 [MDT-4, 1,6-diaminodiamantane]
- Relative affinity (NMDA receptor [1]): 0.006

Compound: NC12CC3C4CC5(N)CC3C(C1)C(C5)C4C2 [MDT-5, 4,9-diaminodiamantane]
- Relative affinity (NMDA receptor [1]): 0.002

Compound: OC12CC3CC4C5CC(CC41)CC2C5C3 [MDT-10, 1-hydroxydiamantane]
- solubility in assay friendly solvents [2]: went into solution
- Relative affinity (NMDA receptor [1]): 0.015

Compound: OC12CC3C4CC5CC3C(C1)C(C5)C4C2 [MDT-11, 4-diamantanol]
- solubility in assay friendly solvents [2]: went into solution

Compound: OC12CC3CC4C1CC1CC2C(C3)C4(O)C1 [MDT-12, 1,6-dihydroxydiamantane]
- solubility in assay friendly solvents [2]: went into solution
- Relative affinity (NMDA receptor [1]): 0.077

Compound: OC12CC3CC4C1CC1CC4C(O)(C3)C2C1 [MDT-13, 1,7-dihydroxydiamantane]
- solubility in assay friendly solvents [2]: went into solution

Compound: OC12CC3C4CC5(O)CC3C(C1)C(C5)C4C2 [MDT-14, 4,9-dihydroxydiamantane]
- solubility in assay friendly solvents [2]: went into solution

Compound: OC12CC3C4CC5C6CC7(O)CC5C(C4C1)C(C2)(C7)C36 [MDT-15, 9,15-dihydroxytriamantane]
- solubility in assay friendly solvents [2]: went into solution

Compound: O=C(O)C12CC3CC4C5CC(CC41)CC2C5C3 [MDT-17, 1-diamantane carboxylic acid]
- solubility in assay friendly solvents [2]: did not go into solution, or came out with time
- Relative affinity (NMDA receptor [1]): 0.063

Compound: O=C(O)C12CC3CC4C1CC1CC2C(C3)C4(C(=O)O)C1 [MDT-19, 1,6-diamantane dicarboxylic acid]
- solubility in assay friendly solvents [2]: did not go into solution, or came out with time
- Relative affinity (NMDA receptor [1]): 0.091

Compound: O=C(O)C12CC3C4CC5(C(=O)O)CC3C(C1)C(C5)C4C2 [MDT-20, 4,9-diamantane dicarboxylic acid]
- solubility in assay friendly solvents [2]: did not go into solution, or came out with time

Compound: CC12CC3CC4C1CC1CC4[C@](N)(C3)C2C1 [MDT-22, 1-methyl-7-aminodiamantane]
- reversibility of inhibition of NMDA evoked currents upon washout (NMDA receptor [3]): reversible

Compound: CC12CC3CC4C1CC1CC2C(N)(C3)C4(C)C1 (stereo not drawn) [MDT-23, 1,6-dimethyl-2-aminodiamantane]
- reversibility of inhibition of NMDA evoked currents upon washout (NMDA receptor [3]): not reversible

Compound: CC12CC3CC(C)(C1)CC(N)(C3)C2 [Memantine, 1-amino-3,5-dimethyladamantane, reference compound]
- Ki (NMDA receptor [1]; [3H]MK-801 1 nM, guinea pig brain membranes, read-out: Ki at the NMDA site (standard compounds)): 602 ± 27 nM
- Relative affinity (NMDA receptor [1]): 1
